In one assay the target is T1, human NPFFR2 (Homo sapiens, UniProt Q9Y5X5).
T1 construct: expressed in transfected cells; host or cells: HEK293T (pcDNA3.1 NPFFR2)
As to the kind of experiment: GloSensor forskolin-stimulated cAMP assay, NPFFR2 wild-type. Format: cell-based. The conditions noted are these: HEK293T, 0.5 μM forskolin; for Emax: HEK-293T. Here is the method: Figure 1 Structural analysis and downstream signaling of NPFFR2. (A) The concentration-dependent response of various agonists on NPFFR2 is measured using a forskolin-stimulated cAMP assay. Data points represent mean values from three independent experiments (each with technical triplicate), with error bars indicating SEM (standard error of the mean). Raw data were normalized to the vehicle-treated (0%) and 0.5 μM forskolin-treated (100%) responses. […] (C) The extracellular loop 2 (ECL2, pink) and N-terminus (Nt, blue) of NPFFR2 are depicted using a cartoon model. […] Source data are available online for this figure.
HEK293T cells were seeded at a density of 6 × 10^5 cells per well in a six-well cell culture plate (SPL) and co-transfected with expression plasmids encoding GloSensor™ and each NPFFR construct, using 1 µg to 4 µg of DNA per well according to the Lipofectamine™ 2000 Transfection Reagent (Invitrogen) protocol. After 48 h of incubation under standard conditions (37 °C, 5% CO2), the cells were detached using Accutase solution (Sigma-Aldrich) and washed with PBS. The cells were then pelleted by centrifugation, resuspended in CO2-independent medium (Gibco) supplemented with Firefly D-Luciferin (0.5 mg/ml, NanoLight), and distributed into a 96-well white plate (SPL). After a 2-hour incubation, serially diluted ligands and 0.5 μM forskolin were added to each well to detect ligand-induced signaling. Luminescence signals were measured using a Mithras LB940 instrument (Berthold) with a measurement time of 1 s per well.
Data from the GloSensor^TM cAMP signaling assays were analyzed using GraphPad Prism with a three-parameter logistic model to fit concentration-response curves for both wild-type (WT) and mutant receptors. Mutant expression levels and DNA amounts were adjusted to match WT conditions. ΔpEC50 values were calculated by subtracting the log EC50 of the WT receptor from that of each mutant. Results are presented as mean ± SEM from three independent biological replicates, each performed in duplicate or more. Error bars represent the SEM. Statistical significance was assessed using one-way ANOVA, followed by Dunnett’s tests comparisons to the WT receptor. Significance levels were reported as follows: ns (not significant, P > 0.05); *P < 0.05; **P < 0.01; ***P < 0.001.

Assay [1] concerns the target T2, NPFFR1-chimera (Q37^NtL/I293^6.58S/T307^7.31N) (Homo sapiens, UniProt Q9GZQ6, I293S/Q37L/T307N).
T2 construct: expressed in transfected cells; host or cells: HEK293T
As to the kind of experiment: GloSensor forskolin-stimulated cAMP assay, NPFFR1 triple mutant (chimera Q37NtL/I2936.58S/T3077.31N). In kind it is cell-based. The settings on record: HEK293T, 0.5 μM forskolin, three independent experiments. Here is the method:
Figure 4 RF-amide ligand selectivity of NPFFR2 and NPFFR1. (A) Sequence alignment between human NPFFs and RFRPs, the endogenous ligands of NPFFRs, which share PXRF-NH2 motif at their C-terminus (shown in green letters). Key residues at the fifth and sixth positions from the C-terminus, are highlighted in bold. […] (B) The concentration-dependent response of various agonists on NPFFR1 was measured using a forskolin-stimulated cAMP assay. Data points represent the mean values from three independent experiments (each with technical triplicate), with error bars indicating SEM. Raw data were normalized to the vehicle-treated (0%) and 0.5 μM forskolin-treated (100%) responses. (C) Structural comparison between the binding modes of hNPSF to NPFFR2 and GnIH to NPFFR1. An AlphaFold2 prediction model of the GnIH–NPFFR1 complex was generated using the hNPSF–NPFFR2 complex structure as a template. The hydrophobicity of NPFFRs is shown with surface representation, where purple indicates hydrophilic regions and bronze indicates hydrophobic regions. […] (D) The cAMP response to the ligands hNPSF and GnIH was measured for both wild-type NPFFR1 and a mutant form of NPFFR1 using a forskolin-stimulated cAMP assay. […] Symbols represent mean values from three independent experiments, each conducted in technical triplicates, with error bars indicating SEM. Responses were normalized to vehicle-treated controls (0%) and 0.5 μM forskolin-treated controls (100%). Source data are available online for this figure.
To further validate whether these specific residues in NPFFR1 affect ligand selectivity, we generated a triple mutant of NPFFR1, in which residues Q37^Nt, I293^6.58, and T307^7.31 of NPFFR1 were replaced by the corresponding NPFFR2 residues, Leu, Ser, and Asn, respectively (Appendix Fig. S10). […]
HEK293T cells were seeded at a density of 6 × 10^5 cells per well in a six-well cell culture plate (SPL) and co-transfected with expression plasmids encoding GloSensor™ and each NPFFR construct, using 1 µg to 4 µg of DNA per well according to the Lipofectamine™ 2000 Transfection Reagent (Invitrogen) protocol. […] Luminescence signals were measured using a Mithras LB940 instrument (Berthold) with a measurement time of 1 s per well.
Data from the GloSensor^TM cAMP signaling assays were analyzed using GraphPad Prism with a three-parameter logistic model to fit concentration-response curves for both wild-type (WT) and mutant receptors. Mutant expression levels and DNA amounts were adjusted to match WT conditions. ΔpEC50 values were calculated by subtracting the log EC50 of the WT receptor from that of each mutant. […] Statistical significance was assessed using one-way ANOVA, followed by Dunnett’s tests comparisons to the WT receptor. […]

Setting [2] is: NPFFR2 wild type (50% DNA treated), three independent experiments.

T1 sequence (Q9Y5X5 103-522): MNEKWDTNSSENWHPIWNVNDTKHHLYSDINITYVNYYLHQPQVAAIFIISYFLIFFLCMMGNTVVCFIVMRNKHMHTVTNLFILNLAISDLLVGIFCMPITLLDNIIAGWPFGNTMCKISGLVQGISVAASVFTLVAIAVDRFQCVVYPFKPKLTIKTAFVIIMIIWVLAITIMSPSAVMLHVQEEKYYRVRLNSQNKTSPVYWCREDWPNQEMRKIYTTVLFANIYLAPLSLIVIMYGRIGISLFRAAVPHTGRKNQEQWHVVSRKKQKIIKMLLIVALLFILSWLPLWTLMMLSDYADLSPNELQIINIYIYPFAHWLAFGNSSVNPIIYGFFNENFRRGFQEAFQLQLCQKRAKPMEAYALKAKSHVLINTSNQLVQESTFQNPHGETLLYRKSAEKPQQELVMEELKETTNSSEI
T2 sequence (Q9GZQ6 whole entry Q37L/I293S/T307N): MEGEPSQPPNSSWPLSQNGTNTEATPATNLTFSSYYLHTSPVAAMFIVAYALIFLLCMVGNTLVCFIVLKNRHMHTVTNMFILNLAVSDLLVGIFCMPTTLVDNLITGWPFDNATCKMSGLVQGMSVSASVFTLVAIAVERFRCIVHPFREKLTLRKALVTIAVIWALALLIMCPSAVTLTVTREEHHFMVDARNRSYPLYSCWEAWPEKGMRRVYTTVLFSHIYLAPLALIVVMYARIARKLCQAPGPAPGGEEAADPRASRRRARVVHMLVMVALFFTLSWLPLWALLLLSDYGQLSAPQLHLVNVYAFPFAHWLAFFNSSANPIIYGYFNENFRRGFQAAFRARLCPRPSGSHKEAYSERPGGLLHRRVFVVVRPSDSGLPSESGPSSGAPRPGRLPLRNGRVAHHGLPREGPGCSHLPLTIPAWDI

`CC(C)C[C@H](NC(=O)[C@H](Cc1ccccc1)NC(=O)[C@H](C)NC(=O)[C@H](CCC(N)=O)NC(=O)[C@@H](N)CO)C(=O)N[C@@H](Cc1ccccc1)C(=O)N[C@@H](CCC(N)=O)C(=O)N1CCC[C@H]1C(=O)N[C@@H](CCC(N)=O)C(=O)N[C@@H](CCCNC(=N)N)C(=O)N[C@@H](Cc1ccccc1)C(N)=O` [hNPSF]: the maximum response (Emax) on human NPFFR2 (setting [2]) came to 56 ± 2%; on human NPFFR2 (NPFFR2 wild-type (100% DNA treated for hNPSF), mean of three independent experiments ± SEM), 77 ± 3%; in assay [1] (HEK-293T) it was 78 ± 2%. Further, the EC50 at human NPFFR2 (setting [2]) is 6.31 nM; on human NPFFR2 (NPFFR2 wild-type (100% DNA treated for hNPSF), three independent experiments) it was 3.16 nM; in assay [1], 31.6 nM.

Values taken from paper PMC12069643, “Structural insights into the selective recognition of RF-amide peptides by neuropeptide FF receptor 2” (EMBO Reports, 2025).
